Calls of active or inactive are those of the source. No cut-off for these calls is given here.
Tests used:
[1] = target: T1, Peroxisome proliferator-activated receptor alpha (Homo sapiens, UniProt Q07869)
T1 sequence (Q07869 whole entry): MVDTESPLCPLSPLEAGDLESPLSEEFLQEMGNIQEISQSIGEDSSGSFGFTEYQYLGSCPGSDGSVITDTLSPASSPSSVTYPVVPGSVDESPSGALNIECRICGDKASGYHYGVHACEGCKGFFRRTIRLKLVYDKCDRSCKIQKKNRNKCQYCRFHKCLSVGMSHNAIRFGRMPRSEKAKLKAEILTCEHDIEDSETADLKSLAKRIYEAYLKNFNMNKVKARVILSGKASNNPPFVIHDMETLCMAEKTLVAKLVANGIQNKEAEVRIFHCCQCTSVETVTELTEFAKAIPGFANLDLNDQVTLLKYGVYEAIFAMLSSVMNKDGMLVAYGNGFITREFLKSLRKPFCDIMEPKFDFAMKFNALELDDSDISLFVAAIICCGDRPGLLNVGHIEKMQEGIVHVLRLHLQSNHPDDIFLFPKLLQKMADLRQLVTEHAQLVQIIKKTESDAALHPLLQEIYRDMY

Mus musculus [2] = assay: Antihyperglycemic effect in ob/ob B6.V-Lepob/J mouse assessed as reduction in blood glucose level at 20 mg/kg once daily after 14 days relative to control; format: functional
Rattus norvegicus [3] = assay: Decrease in fasting serum triglyceride level in Zucker diabetic fa/fa rat at 10 mg/kg, po; format: functional; set-up: scale not given: the % may be the effect or the level left
Rattus norvegicus [4] = assay: Reduction of plasma glucose level in Zucker diabetic fa/fa rat at 10 mg/kg, po; format: functional; set-up: scale not given: the % may be the effect or the level left
Rattus norvegicus [5] = assay: Increase in high density lipoprotein level in Zucker diabetic fa/fa rat at 10 mg/kg, po; format: functional
[6] = Volume of distribution at steady state in Sprague-Dawley rat plasma after 24 hrs; format: ADME, organism-based; conditions: read-out: Vdss
[7] = Clearance in Sprague-Dawley rat plasma after 24 hrs; format: ADME, organism-based
[8] = Half life in Sprague-Dawley rat plasma at 5 mg/kg, iv after 24 hrs; format: ADME, organism-based; set-up: dose 5 mg/kg, route intravenous
[9] = AUC in Sprague-Dawley rat plasma at 5 mg/kg, po after 24 hrs; format: ADME, organism-based; set-up: time < 24 hr, dose 5 mg/kg, route oral
[10] = Bioavailability in Sprague-Dawley rat plasma at 5 mg/kg, po after 24 hrs; format: ADME, organism-based
Mus musculus [11] = species on record: Mus musculus; assay: Antihyperglycemic effect in ob/ob B6.V-Lepob/J mouse assessed as reduction in plasma glucose level after 14 days relative to control; format: functional, organism-based
[12] = Half life in Sprague-Dawley rat plasma at 1 mg/kg, iv after 24 hrs; format: ADME, organism-based; set-up: dose 1 mg/kg, route intravenous

CN(C/C=C/c1ccc(C[C@@H](C(=O)O)n2cccc2)cc1)c1ccccc1
EC50 [1]: > 30 µM

Cc1oc(-c2ccccc2)nc1CNCc1ccc(C[C@@H](C(=O)O)n2cccc2)cc1
EC50 [1]: > 30 µM

CC(=O)N(Cc1ccc(C[C@@H](C(=O)O)n2cccc2)cc1)Cc1nc(-c2ccccc2)oc1C
EC50 [1]: > 30 µM

Cc1oc(-c2ccccc2)nc1CC#Cc1ccc(CC(C(=O)O)c2cccc(-c3ccccc3)c2)cc1 (racemic)
EC50 [1]: 2.8 µM

Cc1oc(-c2ccccc2)nc1CC#Cc1ccc(CC(C(=O)O)c2cccnc2)cc1 (racemic)
EC50 [1]: 16 µM

CN(CC#Cc1ccc(C[C@@H](C(=O)O)n2cccc2)cc1)c1ccccc1
EC50 [1]: > 100 µM

Cc1oc(-c2ccccc2)nc1CCNc1ccc(C[C@@H](C(=O)O)n2cccc2)cc1
Activity (Mus musculus [2]): inactive

CN(CC#Cc1ccc(CC(C(=O)O)n2cccc2)cc1)c1ccccn1 (racemic)
EC50 [1]: > 100 µM

Cc1oc(-c2ccccc2)nc1CCOc1ccc(C[C@@H](C(=O)O)n2cccc2)cc1
Activity (Rattus norvegicus [3]): 24%
Activity (Rattus norvegicus [4]): 40%
Activity (Rattus norvegicus [5]): 31%

Cc1oc(-c2ccccc2)nc1CCCc1ccc(C[C@@H](C(=O)O)n2cccc2)cc1
Vd [6]: 1.06 L/kg
clearance [7]: 5.3 mL/min/kg
half-life [8]: 8.4 h
Activity (Mus musculus [2]): 70%
AUC at 24 h [9]: 8650 ng·h/mL
bioavailability [10]: 50%
Activity (Mus musculus [11]): Active

Cc1oc(-c2ccccc2)nc1CC#Cc1ccc(CC(C(=O)O)c2ccc(-c3ccccc3)cc2)cc1 (racemic)
EC50 [1]: 4 µM

Cc1oc(-c2ccccc2)nc1C/C=C/c1ccc(C[C@@H](C(=O)O)n2cccc2)cc1
Vd [6]: 0.408 L/kg
clearance [7]: 0.9 mL/min/kg
half-life [12]: 5.6 h
Activity (Mus musculus [2]): 71%
AUC at 24 h [9]: 55400 ng·h/mL
bioavailability [10]: 62%
Activity (Mus musculus [11]): Active

Cc1oc(-c2ccccc2)nc1CN(C)Cc1ccc(C[C@@H](C(=O)O)n2cccc2)cc1
EC50 [1]: 12 µM

CN(C/C=C/c1ccc(C[C@@H](C(=O)O)n2cccc2)cc1)c1ccccn1
EC50 [1]: 29 µM
